# Values of other authors as cited in US7220858B2, “Synthesis of hydrazine and chlorinated derivatives of bicyclic pyridazines” (Barbeau Pharma, Inc., priority 2003, dated 2007).
# Where two headings read alike, the source gives them in different places.
# Experiments:
# [1] = in the presence of oxygen and metal ions such as Cu+2, Fe+2, and Fe+3
compound,measurement,setting,value
"NNc1nncc2ccccc12 [Hydralazine, 1-hydrazinophthalazine]",onset of action,vascular smooth muscle; given intravenously,10 to 20 min
same,metabolism and excretion,vascular smooth muscle; in the body,extensively metabolized in the body to products that are excreted predominantly in the urine
same,duration of action,vascular smooth muscle; in vivo,3 to 4 h
same,onset of action,vascular smooth muscle; in vivo,10 to 30 min
same,time to maximum hypotensive effect,vascular smooth muscle; in vivo,10 to 80 min
same,oxidation,[1],oxidizes rapidly
